Experimental data published in US8076487B2, “Pyridone derivative and herbicide” (Kumiai Chemical Industry Co., Ltd., priority 2006, dated 2011).

Legend:
Format in all cases: in vivo
[1] = test system: green foxtail (Setaria viridis (L.) P. Beauv.); assay: Test Example 3: herbicidal effect by application to upland field (foliage treatment); conditions: foliage treatment, 1,000 g active ingredient per 1 hectare, 14th day after application, greenhouse
How it was run: (§1)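 Greenhouse-grown plants, two weeks old in field soil, were treated by spraying their foliage with a water dilution of wettable powder. Rate: 1,000 g active ingredient in a 1,000 L/ha equivalent volume. Assessment followed at 14 days.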

[2] = test system: barnyardgrass (Echinochloa crus-galli (L.) P. Beauv. var. crus-galli); assay: as above; conditions: foliage treatment, 1,000 g active ingredient per 1 hectare, 14th day after application, greenhouse
How it was run: as §1

[3] = test system: slender amaranth (Amaranthus viridis L.); assay: as above; conditions: foliage treatment, 1,000 g active ingredient per 1 hectare, 14th day after application, greenhouse
How it was run: as §1

[4] = test system: velvetleaf (Abutilon theophrasti medicus); assay: as above; conditions: foliage treatment, 1,000 g active ingredient per 1 hectare, 14th day after application, greenhouse
How it was run: as §1

[5] = test system: Japanese bulrush (Scirpus juncoides Roxb.); assay: Test Example 1: herbicidal effect by soil application to paddy field; conditions: paddy field soil application; active ingredient 1,000 g per 1 hectare; wettable powder added dropwise to water surface the day after sowing; examined on the 21st day after application
How it was run: (§2)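 Plants were sown in flooded (3 cm) paddy soil and evaluated for herbicidal effect 21 days after soil application in a greenhouse.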

[6] = test system: early watergrass (Echinochloa oryzicola Vasing); assay: as above; conditions: paddy field soil application; active ingredient 1,000 g per 1 hectare; wettable powder added dropwise to water surface the day after sowing; examined on the 21st day after application
How it was run: as §2

[7] = test system: heartshape false pickerelweed (Monochoria vaginalis (Burm.f.) C.Presl); assay: as above; conditions: paddy field soil application; active ingredient 1,000 g per 1 hectare; wettable powder added dropwise to water surface the day after sowing; examined on the 21st day after application
How it was run: as §2

CCCc1ccc(C(=O)C2=C(O)CCCC2=O)c(=O)n1-c1ccccc1 [I-231]
herbicidal effect, Green Foxtail [1]: 3 (50 to less than 70% of herbicidal effect and crop phytotoxicity) | herbicidal effect, Barnyardgrass [2]: 4 (70 to less than 90% of herbicidal effect and crop phytotoxicity) | herbicidal effect, Slender Amaranth [3]: 4 (70 to less than 90% of herbicidal effect and crop phytotoxicity) | herbicidal effect, Velvetleaf [4]: 4 (70 to less than 90% of herbicidal effect and crop phytotoxicity) | herbicidal effect, Scirpus juncoides Roxb. [5]: 5 (90% or more of herbicidal effect and crop phytotoxicity) | herbicidal effect, Echinochloa oryzicola Vasing [6]: 5 (90% or more of herbicidal effect and crop phytotoxicity) | herbicidal effect, Monochoria vaginalis (Burm. f.) C. Presl [7]: 5 (90% or more of herbicidal effect and crop phytotoxicity)

Cn1c(C(F)(F)F)ccc(C(=O)C2=C(O)CC(C)(C)CC2=O)c1=O [II-3]
herbicidal effect, Green Foxtail [1]: 4 (70 to less than 90% of herbicidal effect and crop phytotoxicity) | herbicidal effect, Barnyardgrass [2]: 3 (50 to less than 70% of herbicidal effect and crop phytotoxicity) | herbicidal effect, Slender Amaranth [3]: 5 (90% or more of herbicidal effect and crop phytotoxicity) | herbicidal effect, Velvetleaf [4]: 5 (90% or more of herbicidal effect and crop phytotoxicity) | herbicidal effect, Scirpus juncoides Roxb. [5]: 5 (90% or more of herbicidal effect and crop phytotoxicity) | herbicidal effect, Echinochloa oryzicola Vasing [6]: 5 (90% or more of herbicidal effect and crop phytotoxicity) | herbicidal effect, Monochoria vaginalis (Burm. f.) C. Presl [7]: 5 (90% or more of herbicidal effect and crop phytotoxicity)

CC1CC(C)C(O)=C(C(=O)c2ccc(C(F)(F)F)n(C)c2=O)C1=O (centres unmarked) [II-7]
herbicidal effect, Green Foxtail [1]: 4 (70 to less than 90% of herbicidal effect and crop phytotoxicity) | herbicidal effect, Barnyardgrass [2]: 4 (70 to less than 90% of herbicidal effect and crop phytotoxicity) | herbicidal effect, Slender Amaranth [3]: 5 (90% or more of herbicidal effect and crop phytotoxicity) | herbicidal effect, Velvetleaf [4]: 5 (90% or more of herbicidal effect and crop phytotoxicity) | herbicidal effect, Scirpus juncoides Roxb. [5]: 5 (90% or more of herbicidal effect and crop phytotoxicity) | herbicidal effect, Echinochloa oryzicola Vasing [6]: 5 (90% or more of herbicidal effect and crop phytotoxicity) | herbicidal effect, Monochoria vaginalis (Burm. f.) C. Presl [7]: 5 (90% or more of herbicidal effect and crop phytotoxicity)

CCn1c(C(F)(F)F)ccc(C(=O)C2=C(O)C3CCC(C3)C2=O)c1=O (centres unmarked) [III-2]
herbicidal effect, Green Foxtail [1]: 5 (90% or more of herbicidal effect and crop phytotoxicity) | herbicidal effect, Barnyardgrass [2]: 5 (90% or more of herbicidal effect and crop phytotoxicity) | herbicidal effect, Slender Amaranth [3]: 5 (90% or more of herbicidal effect and crop phytotoxicity) | herbicidal effect, Velvetleaf [4]: 5 (90% or more of herbicidal effect and crop phytotoxicity) | herbicidal effect, Scirpus juncoides Roxb. [5]: 5 (90% or more of herbicidal effect and crop phytotoxicity) | herbicidal effect, Echinochloa oryzicola Vasing [6]: 5 (90% or more of herbicidal effect and crop phytotoxicity) | herbicidal effect, Monochoria vaginalis (Burm. f.) C. Presl [7]: 5 (90% or more of herbicidal effect and crop phytotoxicity)

CCC(C)n1c(C(F)(F)F)ccc(C(=O)C2=C(O)C3CCC(C3)C2=O)c1=O (centres unmarked) [III-8]
herbicidal effect, Green Foxtail [1]: 5 (90% or more of herbicidal effect and crop phytotoxicity) | herbicidal effect, Barnyardgrass [2]: 5 (90% or more of herbicidal effect and crop phytotoxicity) | herbicidal effect, Slender Amaranth [3]: 3 (50 to less than 70% of herbicidal effect and crop phytotoxicity) | herbicidal effect, Velvetleaf [4]: 5 (90% or more of herbicidal effect and crop phytotoxicity) | herbicidal effect, Scirpus juncoides Roxb. [5]: 5 (90% or more of herbicidal effect and crop phytotoxicity) | herbicidal effect, Echinochloa oryzicola Vasing [6]: 5 (90% or more of herbicidal effect and crop phytotoxicity) | herbicidal effect, Monochoria vaginalis (Burm. f.) C. Presl [7]: 5 (90% or more of herbicidal effect and crop phytotoxicity)
